# Measurements published in patent publication US12691130B2, “Compositions and methods for improving cognitive function” (Diamond Therapeutics Inc., priority 2019, dated 2026).
# Entries after “also recorded” stand apart in the source; their conditions may differ.
# What was measured:
# [1] = molecular target: 5-HT2A receptor (Rattus norvegicus, UniProt P14842); experiment: Dose finding: behavioral syndrome, wet dog shakes (WDS) and back muscle contractions (BMC); conditions: rats
# Procedure: The total number (N) of wet dog shakes (WDS) and back muscle contractions (BMC) is plotted against dose (mg/kg).
# Psilocybin was tested at a dose range of 0.03-10.0 mg/kg administered sub-cutaneously (S.C.) Behavioral syndrome including wet dog shakes (WDS) and back muscle contractions (BMC) are characteristic of 5-HT2A receptor activity and potentially indicative of psychomotor signs. […] There is a parallel between behaviors such as WDS in rats and hallucination in humans (Behavioral Neurobiology of Psychedelic Drugs, Halberstadt, Adam, Vollenweider, Franz X., Nichols, David E. (Eds.), Springer, 2018, p 161).
# [2] = system: rats; experiment: Dose finding: locomotor activity (distance travelled); format: in vivo
# Description: Stimulant drugs cause far larger increases in distance travelled with escalating doses, reflective of a direct motor stimulant property not seen with psilocybin.
# [3] = system: Long Evans rats; experiment: Progressive ratio (PR) test of motivation; format: in vivo
# Procedure: High responders are defined as rats completing the highest tertile of lever presses in the baseline test; low responders are rats completing the bottom tertile of lever presses in the baseline test. Asterisk (*) indicates statistical significance between high and low responders.
# (§1) Experiments were conducted to test psilocybin doses in the range of 0.05-0.2 mg/kg psilocybin administered S.C. across progressive ratio (PR) and 5-choice serial reaction time task (5CSRTT) to examine the effect of psilocybin on endophenotypes of motivation and attention. In each study, a population of out-bred Long Evans rats was first tested as a group for response to the PR and 5CSRTT. Each group was then divided into sub-groups by tertiles according to performance, and then exposed to various dose levels immediately prior to re-testing at various psilocybin dose levels.
# The PR test is used to answer how willing the test subject is to work for food (i.e. test of motivation). A single 45 mg food pellet (i.e. reinforcer) is made available to the test animal based on lever press response. To obtain each successive pellet, the animal must make increasingly more lever presses. Typically, a progression of 2, 4, 6, 9, 12, 15, 20, 25, 32, 40, 50, 62, 77, 95, 118, etc. is used, derived from the equation: […]
# At some point, the animal gives up as the motor demands to obtain a single pellet are not deemed worthwhile (i.e. animal reaches “break point” defined as animal's failure to earn a food pellet in 20 minutes).
# Psilocybin was administered to rats S.C. at doses of 0.05, 0.1 and 0.2 mg/kg.
# Rats were then sub-grouped into tertiles based on the number of lever presses for food at baseline, so that within the test population of 36 animals, 12 animals were identified as low responders, characterized by low motivation and potentially corresponding to low motivation endophenotype representative of clinical depression. Twelve animals were identified as high responders. There was a statistically significant difference between the high and low responders. […] This represents a motivational enhancing effect of psilocybin in the cohort corresponding to a low motivation endophenotype representative of clinical depression.
# [4] = system: Long Evans rats; experiment: 5-choice serial reaction time task (5CSRTT), standard conditions, 5 s ITI; format: in vivo
# Procedure: Asterisk (*) indicates statistical difference vs. vehicle. […] High performers are defined as rats completing the highest tertile of Hits or Correct nose-pokes in the baseline test; low performers are rats completing the bottom tertile of Hits or Correct nose-pokes in the baseline test.
# Asterisk (*) indicates statistical significance vs. vehicle.
# as §1
# The 5CSRTT involves evaluating test subject response to a brief visual stimulus (Higgins, Guy & Silenieks, Leonardo. (2017). Rodent Test of Attention and Impulsivity: The 5-Choice Serial Reaction Time Task: The 5-Choice Serial Reaction Time Task. 10.1002/cpph.27). Animals are trained to make a nose-poke response to a stimulus location in order to collect a food reward. The task allows the experimenter to measure animal performance in multiple domains including: • Attention • Impulsivity • Perseveration • Speed of response
# A strength of the test is its flexible configuration to challenge test subjects: • Standard test conditions (0.75 s stimulus duration (SD), 5 s inter-trial interval (ITI), 100 trials) • Multiple short stimulus duration (mSD) (0.03-1 s SD) • Fixed long ITI (5 s vs. 10 s ITI) • Multiple ultrashort ITI (2-5 s ITI) • Extended 250 trials
# Asterisk (*) indicates statistical significance vs. vehicle. (FIG. 3A).
# When this population is segmented into tertiles according to performance based on accuracy (% correct, calculated as #correct/(#correct+ #incorrect)*100), the lowest performing tertile (N=8) are considered to be low attentive and potentially representative of a low attentive endophenotype of depression (FIG. 6A). Low attentive rats also score poorly on % hit (FIG. 6B) and have a slower response speed (FIG. 6D). […] Asterisk (*) indicates statistical significance vs. vehicle.
# [5] = system: Long Evans rats; experiment: 5CSRTT with 10 s ITI, premature (PREM) and perseverative (PSV) responses; format: in vivo; conditions: 0.05 mg/kg S.C., 24 rats
# Procedure: A) Graphs show increase in PREM and PSV responses under a 5 second inter-trial interval (ITI) which establishes a baseline (Base) and a 10 second ITI across 24 animals across two doses of psilocybin (0.05 mg/kg and 0.1 mg/kg). Standard deviation is indicated by error bars; asterisks (*) indicate significance vs. vehicle (P=0.05) using T-test. B) Graphs show effects of psilocybin on PREM and PSV in low performer and high performer subgroups. Standard error of the mean is indicated by error bars; asterisks (*) indicate significance vs. vehicle (P<0.01) using T-test. High performers are defined as rats with the highest tertile of premature responses in the baseline test; low performers are rats with the bottom tertile of premature responses in the baseline test.
# Experiments were conducted to test psilocybin doses in the range of 0.05-0.2 mg/kg psilocybin administered S.C. across progressive ratio (PR) and 5-choice serial reaction time task (5CSRTT) to examine the effect of psilocybin on endophenotypes of motivation and attention. In each study, a population of out-bred Long Evans rats was first tested as a group for response to the PR and 5CSRTT. Each group was then divided into sub-groups by tertiles according to performance, and then exposed to various dose levels immediately prior to re-testing at various psilocybin dose levels. […]
# [6] = Psilocybin plasma pharmacokinetics after s.c. psilocybin; format: in vivo; conditions: rats
# Procedure: Psilocybin doses of 0.05, 0.1, 1, 10 mg/kg were used to evaluate psilocybin and psilocin PK in rats.
# Details of the plasma concentration studies are shown in Tables 1-8 (psilocybin) and 9-16 (psilocin). Values in italics are below the lower level of quantitation (BLQ, <1 ng/mL) but were included in calculations. Values in bold and underlined are considered to be outliers and were omitted from calculations. Measured dosing solution concentrations were 0.0460, 0.0967, 0.948 and 9.65 mg/mL for 0.05, 0.1, 1 and 10 […].
# Sequence of 5-HT2A receptor (P14842 whole entry): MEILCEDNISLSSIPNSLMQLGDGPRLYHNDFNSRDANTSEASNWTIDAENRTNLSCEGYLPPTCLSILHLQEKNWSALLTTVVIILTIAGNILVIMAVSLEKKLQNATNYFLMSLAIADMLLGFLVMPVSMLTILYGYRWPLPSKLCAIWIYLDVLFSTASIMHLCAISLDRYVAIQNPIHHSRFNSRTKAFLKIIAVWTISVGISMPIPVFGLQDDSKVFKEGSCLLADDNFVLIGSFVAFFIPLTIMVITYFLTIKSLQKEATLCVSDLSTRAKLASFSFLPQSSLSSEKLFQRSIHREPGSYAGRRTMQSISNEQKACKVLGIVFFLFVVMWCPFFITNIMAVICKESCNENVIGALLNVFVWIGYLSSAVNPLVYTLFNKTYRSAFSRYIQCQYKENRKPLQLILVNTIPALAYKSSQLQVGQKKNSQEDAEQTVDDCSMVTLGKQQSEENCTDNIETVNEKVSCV
structure (smiles),measurement,setting,value
"CN(C)CCc1c[nH]c2cccc(OP(=O)(O)O)c12 [psilocybin, 4-phosphoryloxy-N,N-dimethyltryptamine]","signs of behavioral syndrome (WDS, BMC)",[1]; 0.3 mg/kg I.P and higher,significant signs of behavior syndrome
same,"signs of behavioral syndrome (WDS, BMC)",[1]; 0.03-0.1 mg/kg S.C.,no signs of behavioral syndrome
same,distance travelled,[2]; high doses,slightly decreased distanced travelled
same,increase in distance travelled,[2]; low doses,0.3-0.4 fold
same,"PR food responding (lever presses, break point)","[3]; 0.05 mg/kg S.C., low responder subgroup (12 rats)",an increase in food responding in low responder subgroup; also recorded: Significant improvements
same,PR food responding,"[3]; 0.1 mg/kg S.C., low responder subgroup (12 rats)",did not produce an increase in food responding
same,number of lever presses or break points (rewards earned),"[3]; 0.05, 0.1 and 0.2 mg/kg S.C., entire study population of 36 rats",None of these doses were observed to cause obvious changes in the number of lever presses or break points
same,PR response (lever presses),"[3]; 0.05-0.2 mg/kg S.C., high responder subgroup (12 rats)",no effect on response in high responder subgroup
same,"detrimental effects on performance (motivation, motor control, attention, response speed)",[3]; PR 0.05-0.2 mg/kg and 5CSRTT 0.05-0.1 mg/kg S.C.,no detrimental effects of psilocybin were noted on performance
same,"pro-cognitive effect, % hit","[4]; 0.05 mg/kg S.C., 24 rats, 75 s SD, 5 S ITI, 100 trials, vs. vehicle","increased (p=0.05, t-test) pro-cognitive effect"
same,"procognitive effect, % correct","[4]; 0.05 mg/kg S.C., 24 rats, standard conditions",slight non-significant increase in procognitive effect
same,response speed,"[4]; 0.05 mg/kg, low attentive cohort, vs. vehicle",increased response speed in the low attentive cohort compared with vehicle; also recorded: Significant improvements
same,effect on accuracy (% correct and % hit),"[4]; 0.05 and 0.1 mg/kg, low attentive subgroup (N=8), vs. vehicle",strongly evident in the low attentive subgroup compared with vehicle; also recorded: Significant improvements
same,PREM and PSV responses,[5],"an increase (p=0.05, t-test) increase in PREM and PSV responses"
same,"AUC0-tlast, psilocybin, Mean",[6]; 0.05 mg/kg s.c.,10.7 ng·h/mL
same,"Cmax, psilocybin, Mean",[6]; 0.05 mg/kg s.c.,18.9 ng/mL
same,"Cmax/Dose, psilocybin, Mean",[6]; 0.05 mg/kg s.c.,377 kg·ng/mL/mg
same,"tmax, psilocybin, Mean",[6]; 0.05 mg/kg s.c.,36 min
same,"AUC0-tlast, psilocybin, Mean",[6]; 0.1 mg/kg s.c.,11.4 ng·h/mL
same,"Cmax, psilocybin, Mean",[6]; 0.1 mg/kg s.c.,31.4 ng/mL
same,"Cmax/Dose, psilocybin, Mean",[6]; 0.1 mg/kg s.c.,314 kg·ng/mL/mg
same,"tmax, psilocybin, Mean",[6]; 0.1 mg/kg s.c.,19.3 min
same,"AUC0-inf, psilocybin, Mean",[6]; 1.0 mg/kg s.c.,47.9 ng·h/mL
same,"AUC0-inf/Dose, psilocybin, Mean",[6]; 1.0 mg/kg s.c.,47.9 kg·ng·h/mL/mg
same,"AUC0-tlast, psilocybin, Mean",[6]; 1.0 mg/kg s.c.,53.1 ng·h/mL
same,"Apparent t1/2, psilocybin, Mean",[6]; 1.0 mg/kg s.c.,26.7 min
same,"Cmax, psilocybin, Mean",[6]; 1.0 mg/kg s.c.,78.3 ng/mL
same,"Cmax/Dose, psilocybin, Mean",[6]; 1.0 mg/kg s.c.,78.3 kg·ng/mL/mg
same,"MRT0-inf, psilocybin, Mean",[6]; 1.0 mg/kg s.c.,44.8 min
same,"tmax, psilocybin, Mean",[6]; 1.0 mg/kg s.c.,21.4 min
same,"AUC0-inf, psilocybin, Mean",[6]; 10 mg/kg s.c.,2156 ng·h/mL
same,"AUC0-inf/Dose, psilocybin, Mean",[6]; 10 mg/kg s.c.,216 kg·ng·h/mL/mg
same,"AUC0-tlast, psilocybin, Mean",[6]; 10 mg/kg s.c.,1707 ng·h/mL
same,"Apparent t1/2, psilocybin, Mean",[6]; 10 mg/kg s.c.,34 min
same,"Cmax, psilocybin, Mean",[6]; 10 mg/kg s.c.,3595 ng/mL
same,"Cmax/Dose, psilocybin, Mean",[6]; 10 mg/kg s.c.,359 kg·ng/mL/mg
same,"MRT0-inf, psilocybin, Mean",[6]; 10 mg/kg s.c.,43 min
same,"tmax, psilocybin, Mean",[6]; 10 mg/kg s.c.,30 min
